Measured values published in publication PMC5587747, “A natural chalcone induces apoptosis in lung cancer cells: 3D-QSAR, docking and an in vivo/vitro assay” (Scientific Reports, 2017).
Like-named read-outs stand apart in the source and are kept apart here.

Legend:
S180-bearing mice = assay: In vivo antitumor activity in S180 implanted mice; conditions: 25 mg/kg oral daily, 12 days
Description: The animal experiments were carried out according to the National Institute of Health Guide for the Care and Use of Laboratory Animals. And the use of experimental animals was approved by the Animal Ethics Committee of Shenyang Pharmaceutical University. Male Kunming mice, were housed in separate cages under standard conditions (20–24 °C), relative humidity (55% ± 5%) and a 12 h light/12 h dark cycle, and allowed to acclimatize for 3 days prior to the start of experiment. Cultured S180 cells were harvested and washed with sterilized PBS (pH 7.2) three times and resuspended at a density of 6 × 10^6 cells/ml. Mice received subcutaneous implants of 0.2 mL/mouse on the right flank by means of hypodermic injection. Then the mice were divided randomly into 5 groups, including model, positive control and treatment groups with 10 mice in each group after inoculation for 24 h. […] Both groups received oral administrations via an intubation needle every day. […] The weight of the mice was recorded every day throughout the experiment. Finally, the mice were sacrificed by cervical dislocation just 2 h after the last administration. Then the tumor and spleen tissues were harvested and weighed immediately. After that the in vivo tumor inhibition ratio was calculated as: Inhibition ratio (%) = 100((A−B)/A), in which A represents the average tumor weight of the control group and B is recorded as the tumor weight of the administration group. Then, the spleen index was recorded using the following formula:
Spleen index = the final weight of spleen (mg)/the final average body weight (g) without tumor.

H292 cells = assay: MTT cytotoxicity assay, H292 cells; type: cell-based, human
Description: (§1) The cytotoxicities of the tested flavonoids were assayed in ten human lung cancer cell lines (A549, H226, H358, H522, H292, H1944, H460, H1792, SW1573, and Calu-1) using MTT reduction assay. Cisplatin (DDP) was selected as a positive control. Compounds 1–37 were dissolved in DMSO to obtain a clear solution of 1 M, which was diluted to 400 mM, 200 mM, 100 mM, 75 mM, 50 mM, 37.5 mM, 25 mM, 10 mM and 1 mM respectively as stock solutions. The DMSO concentration in the medium was kept below 0.10%. Moreover, the stability of tested compounds in experimental buffer was confirmed at 24 h and 48 h respectively by means of HPLC analysis. Then the human lung cancer cells were placed in 96-well culture plates (5 × 10^4 cells/well) and incubated for 24 h. Then, the cells were pretreated with different concentrations of test samples (gradient concentrations 1.0, 10.0, 25.0, 37.5, 50, 75, 100, 200, 400, 1000 μM for compounds 1–37 and DDP) for 48 h. And cell growth was measured by MTT assays. The cytotoxicities against the lung cancer cells were determined systematically and expressed as IC50 value.

H1944 = assay: MTT cytotoxicity assay, H1944 cells; type: cell-based, human; conditions: DDP 10 μM
Description: as §1

Calu-1 = assay: MTT cytotoxicity assay, Calu-1 cells; type: cell-based, human; conditions: DDP 10 μM
Description: as §1

H226 = assay: MTT cytotoxicity assay, H226 cells; type: cell-based, human; conditions: DDP 10 μM
Description: as §1

H358 = assay: MTT cytotoxicity assay, H358 cells; type: cell-based, human; conditions: DDP 10 μM
Description: as §1

H1792 = assay: MTT cytotoxicity assay, H1792 cells; type: cell-based, human; conditions: DDP 10 μM
Description: as §1

H460 = assay: MTT cytotoxicity assay, H460 cells; type: cell-based, human; conditions: DDP 10 μM
Description: as §1

A549 = assay: MTT cytotoxicity assay, A549 cells; type: cell-based, human; conditions: DDP 10 μM
Description: as §1

H522 = assay: MTT cytotoxicity assay, H522 cells; type: cell-based, human; conditions: DDP 10 μM
Description: as §1

SW1573 = assay: MTT cytotoxicity assay, SW1573 cells; type: cell-based, human; conditions: DDP 10 μM
Description: as §1

[1] = Homo sapiens, NCI-H292, H292 cells, MTT, 48 h, Table S2, read-out: IC50
[2] = Homo sapiens, NCI-H292, H292 cells, Table S2, read-out: pIC50 (converted)
[3] = Homo sapiens, NCI-H292, H292 cells, MTT, 48 h, read-out: IC50

| Compound | IC50 (H292 cells; [1]) [µM] | IC50 (H292 cells; [2]) [µM] | also measured |
| --- | --- | --- | --- |
| O=P1(N(CCCl)CCCl)NCCCO1 (stereo not shown) [CTX, Cyclophosphamide, reference compound] | – | – | Body weight/g After experiment (S180-bearing mice): 28.09 ± 0.56 g; Body weight/g Before experiment (S180-bearing mice): 35.97 ± 0.89 g; Inhibitory rate (%) (S180-bearing mice): 80.75%; Tumor weight/g (S180-bearing mice; mean ± SE): 1.55 ± 0.30 g |
| COc1cc(OC)c(Cl)c(-c2cc(=O)c3ccc4occc4c3o2)c1Cl [Compound 1] | 490 | 490 | – |
| O=c1cc(-c2ccccc2)oc2c1c(O)cc1occc12 [Compound 3, kanjone] | > 1000 | > 1000 | – |
| O=c1cc(-c2ccc(O)cc2)oc2c1ccc1occc12 [Compound 4] | 705 | 705 | – |
| O=c1cc(-c2ccc3c(c2)OCO3)oc2c1ccc1occc12 [Compound 6] | > 1000 | > 1000 | – |
| O=c1cc(-c2ccccc2)oc2c1cc(O)c1occc12 [Compound 8] | 750 | 750 | – |
| COc1cc2c(=O)cc(-c3ccccc3)oc2c2ccoc12 [Compound 9, 6-hydroxy,3-methoxyfuro[8,7:4′′,5′′]flavone] | 975 | 975 | – |
| COc1c(-c2ccccc2)oc2c(ccc3occc32)c1=O [Compound 10] | 794 | 794 | – |
| COc1c(-c2ccccc2)oc2c(cc(O)c3occc32)c1=O [Compound 11, demethylate kanjone] | > 1000 | > 1000 | – |
| COc1c(-c2ccc3c(c2)OCO3)oc2c3c(ccc2c1=O)OC(C)(C)C=C3 [Compound 12, pongapinnol-C] | – | 100 | IC50 (H292 cells; [3]): 100 µM |
| COc1cccc(-c2cc(=O)c3ccc4occc4c3o2)c1 [Compound 13] | 615 | 615 | – |
| O=c1cc(-c2cccc(O)c2)oc2c1ccc1occc12 [Compound 14, isopongaglabol] | 630 | 630 | – |
| COc1cc(OC)cc(-c2cc(=O)c3ccc4occc4c3o2)c1 [Compound 15] | – | 158 | IC50 (H292 cells; [3]): 158 µM |
| COc1ccc(OC)c(-c2cc(=O)c3ccc4occc4c3o2)c1 [Compound 16] | 374 | 374 | – |
| COc1ccc(O)cc1-c1oc2c(ccc3occc32)c(=O)c1OC [Compound 18] | > 1000 | > 1000 | – |
| COc1cc(O)cc(-c2oc3c(ccc4occc43)c(=O)c2OC)c1 [Compound 19] | > 1000 | > 1000 | – |
| COc1c2ccoc2cc2oc(-c3ccccc3)cc(=O)c12 [Compound 20] | > 1000 | > 1000 | – |

| Compound | IC50 (H292 cells; [1]) [µM] | IC50 (H292 cells; [2]) [µM] | also measured |
| --- | --- | --- | --- |
| COc1c2ccoc2cc2oc(-c3ccc4c(c3)OCO4)cc(=O)c12 [Compound 22] | > 1000 | > 1000 | – |
| COc1ccc2c(=O)c(OC)c(-c3ccc4c(c3)OCO4)oc2c1 [Compound 24] | 394 | 394 | – |
| COc1ccc2c(=O)c(OC)c(-c3ccc(OC)c(OC)c3)oc2c1 [Compound 25] | 1000 | 1000 | – |
| COc1ccc(-c2coc3cc(CC=C(C)C)ccc3c2=O)cc1 [Compound 26] | – | 294 | IC50 (H292 cells; [3]): 294 µM |
| COc1ccc(-c2coc3cc(O)ccc3c2=O)cc1 [Compound 27] | > 1000 | > 1000 | – |
| O=c1c(-c2ccc(O)cc2)coc2cc(O)cc(O)c12 [Compound 28] | 631 | 631 | – |
| O=c1c(-c2ccc3c(c2)OCO3)coc2cc(O)ccc12 [Compound 29] | 1000 | 1000 | – |
| COc1ccc(-c2coc3c(O)c(O)ccc3c2=O)cc1O [Compound 30] | 501 | 501 | – |
| COc1cc(O)cc(-c2coc3cc(O)ccc3c2=O)c1 [Compound 31] | > 1000 | > 1000 | – |
| COc1ccc(-c2coc3c(OC)c(O)ccc3c2=O)cc1 [Compound 32] | 776 | 776 | – |
| COc1ccc(-c2coc3c(O)c(OC)ccc3c2=O)cc1 [Compound 33] | – | 216 | IC50 (H292 cells; [3]): 216 µM |
| CC1(C)C=Cc2c(ccc(C(=O)/C=C/c3ccc4c(c3)OCO4)c2O)O1 [Compound 35] | – | 61.5 | IC50 (H292 cells; [3]): 61.5 µM |
| CC1(C)C=Cc2c(ccc3c2O[C@H](c2ccccc2)CC3=O)O1 [Compound 36] | – | 50 | IC50 (H292 cells; [3]): 50 µM |
| CC1(C)C=Cc2c(ccc3c2O[C@H](c2ccc4c(c2)OCO4)CC3=O)O1 [Compound 37] | – | 61.5 | IC50 (H292 cells; [3]): 61.5 µM |
| N.N.[Cl][Pt][Cl] [DDP, Cisplatin, reference compound] | – | – | inhibition rate (IR %) (H292 cells; H292, DDP 10 μM): 91.3%; inhibition rate (IR %) (H1944): 40.4%; inhibition rate (IR %) (Calu-1): 59.1%; inhibition rate (IR %) (H226): 87.4%; inhibition rate (IR %) (H358): 81.2%; inhibition rate (IR %) (H1792): 44.6%; inhibition rate (IR %) (H460): 89.1%; inhibition rate (IR %) (A549): 76.4%; inhibition rate (IR %) (H522): 69.6%; inhibition rate (IR %) (SW1573): 69.4% |
| genistein [Compound 21] | – | – | IC50 (H292 cells; H292 cells, MTT, 48 h, Table S2, read-out: IC50): > 1000 µM; pIC50 (H292 cells; H292 cells, Table S2): < 3.000 |
